Source: patent US20110028566A1, “COMPOSITIONS AND PRODUCTS CONTAINING CYCLOALIPHATIC DIOL ANTIMICROBIAL AGENTS AND METHODS OF USING THE COMPOSITIONS AND PRODUCTS” (EASTMAN CHEMICAL COMPANY, priority 2009, published 2011)

Assays:
Candida albicans = assay: Microbial challenge testing in BPW; format: cell-based; settings: for Grade code, C. albicans, 3 Day / Grade code, C. albicans, 14 Day / Grade code, C. albicans, 30 Days: BPW, w/v % in label, average of replicates
Method: The microorganisms used in challenge tests are given in Table 3, designated as either ATCC (American Type Culture Collection) or wild type. These wild type organisms were problematic organisms previously isolated from chemical products. In the description for each organism, the bacteria are indicated as either GN (Gram negative) or GP (Gram positive).
All of the microorganisms were grown in Tryptose Soy Broth (TSB), DIFCO™ available from Becton, Dickinson and Company, containing 1% dextrose. Aspergillus niger and Candida albicans were incubated at 22° C.±2° C. for at least 96 hours. All bacteria were incubated at 35° C.±2° C. in a humidified incubator for at least 96 hours.
Aspergillus niger and Candida albicans were also grown on Sabouraud dextrose agar (SDA) at 22° C.±2° C. for 7 to 14 days or until full sporulation was achieved.
The following procedure was followed to determine the amount of each challenge material (inoculum broth) required to produce a 10^8 cfu/mL challenge, which is equivalent to a final test-sample microbial concentration of 10^5 to 10^6 cfu (colony-forming units)/mL.
Using a sterile serological pipette, 1 mL of the growth from each TSB culture was transferred into tubes containing 9 mL phosphate buffer (pH 7.2) and mixed thoroughly. This process was repeated to make serial 1:10 dilutions. Then 0.1 mL of each sample and dilution was inoculated onto agar plates to produce the equivalent of a further 1:10 dilution. C. albicans and A. niger were inoculated onto SDA and bacteria were inoculated onto Plate Count Agar (PCA), DIFCO™ available from Becton, Dickinson and Company. The 0.1 mL aliquots were evenly distributed on the plates using the spread-plate technique. The spread-plate technique is performed by spreading the aliquot over the entire plate surface using a sterile spreading rod while rotating the plate with a rotary auto-plater. After the inoculum was absorbed completely, each plate was inverted and incubated (fungi at 22° C.±2° C. and bacteria at 35° C.±2° C.).
After incubation for at least 48 hours, colonies that had developed on the agar plates were counted and recorded with the corresponding dilution. If counting had to be delayed temporarily, plates were refrigerated, preferably no more than 24 hours, until they could be counted. The number of cfu/mL was determined by multiplying the count by the dilution factor for that particular plate.
Turbidity in Nepholemetric Turbidity Units (NTU) was measured for each serial dilution using the HF-Micro 100 Model Turbidimeter. For each microorganism, the plate counts were compared to the turbidity readings.
On the day of challenge, the Candida albicans inoculum broth was poured through non-absorbent sterile gauze and centrifuged. The […] was then diluted with phosphate buffer (pH 7.2) until the desired turbidity was reached. Using a hemocytometer, a determination was made whether the challenge contained the desired concentration. Dilutions were made through 1.0×10^8 and three SDA spread plates were inoculated with 0.1 mL of each dilution.
Control substrates (“broth alone”) were prepared for each microorganism separately in triplicate by adding 13.5 mL of BPW (pH 7.0) containing 1% (w/v) dextrose to each 20-mL glass tube; then adding 1.5 mL challenge material to produce a final concentration at time zero of 10^5 to 10^6 cfu/mL and a total volume of 15 mL.
Test sample substrates were prepared containing each test material (1,4-CHDM, etc) or combination of test materials at the concentrations shown in Tables 5 and 6.

Microsporum canis = assay: Challenge testing with pathogenic fungi in SDB; format: cell-based; settings: w/v % in label, visual growth in tubes; for Grade code, Pathogenic Fungi, M. canis, 3 Days: 3 days incubation; for Grade code, Pathogenic Fungi, M. canis, 14 Days: 14 days incubation; for Grade code, Pathogenic Fungi, M. canis, 30 Days: 30 days incubation
Method: Both M. canis and Trichophyton rubrum were grown on Sabouraud dextrose broth (SDB) (pH 5.6), while Malassezia fufur was grown in SDB supplemented with 2% (v/v) of olive oil and 0.2% (v/v) of Tween™ 80; incubation was at 22° C.±2° C. under continuous agitation by stirring for 10 days. The organisms were grown to a cell concentration of between 10^3 and 10^4 cfu/mL. The actual inoculation cell concentration of these challenges was determined by diluting in sterile buffer water and (spread-plate method) plating for enumeration.
Challenge organisms were used to inoculate tubes containing each test material (CHDM, etc) or combination of test materials, at concentrations given in Table 5, in SDB (or for M. furfur, in SDB supplemented with olive oil and Tween™ 80). The inoculations were in the amount of 1.5 mL aliquots of each culture with static incubation at 22±2° C. Subcultures were made after 3-, 14-, and 30-days incubation. All challenges were conducted in triplicate. In the case of M. canis, the growth response was assessed by the visual presence or absence of growth in the tubes; in the case of T. rubrum, a respiratory dye (0.2% w/v aqueous INT solution: 2-(4-iodophenyl)-3-(4-nitrophenyl)-5-phenyl tetrazolium chloride) was added to the tubes, turning red if the organism was viable; and, finally, in the case of M. furfur, the growth response was assessed based upon visible pellicle formation in the tubes at the meniscus. The fungal growth in each tube was assigned a grade code as follows:
0: No visible growth 1: Some growth in tube 2: Moderate growth in tube 3: Good growth in tube 4: Extreme growth in tube
All test material concentrations are given as w/v %. The grade codes given are the average of the grade codes for duplicate or triplicate samples.
Table 5 compares the antimicrobial activity of 1,4-CHDM (AB) alone to 1,4-CHDM in combination with EDTA, phenoxyethanol (PE), and caprylyl glycol (CG). CHDM at 0.5% was tested with EDTA, and at 1.25 and 2.5% with EDTA, PE, and CG. (Note that the combination of CHDM with only EDTA was not tested against pathogenic fungi.) Results are also given for EDTA, PE, and CG alone, so the result for each mixture can be compared to the antimicrobial activity for each of its components individually. […] Possible synergies were determined by treating the grade code as an estimate of the log of the microbial count (log of cfu/mL). Log reductions can then be estimated by subtracting each grade code from the grade code for broth alone (grade code 5, except for the pathogenic fungi).

| Compound | Grade code C. albicans (Candida albicans; 0.5%, 3 days incubation) | Grade code C. albicans (Candida albicans; 0.5%, 14 days incubation) | Grade code C. albicans (Candida albicans; 0.5%, 30 days incubation) | Grade code C. albicans (Candida albicans; 1.25%, 3 days incubation) | Grade code C. albicans (Candida albicans; 1.25%, 14 days incubation) | Grade code C. albicans (Candida albicans; 1.25%, 30 days incubation) | Grade code C. albicans (Candida albicans; 2.5%, 3 days incubation) | Grade code C. albicans (Candida albicans; 2.5%, 14 days incubation) | Grade code C. albicans (Candida albicans; 2.5%, 30 days incubation) | Grade code, Pathogenic Fungi, M. canis, 3 Days (Microsporum canis) | Grade code, C. albicans, 3 Day (Candida albicans; 3 days incubation) | Grade code, C. albicans, 14 Day (Candida albicans; 14 days incubation) | Grade code, C. albicans, 30 Days (Candida albicans; 30 days incubation) | Grade code, Pathogenic Fungi, M. canis, 14 Days (Microsporum canis) | Grade code, Pathogenic Fungi, M. canis, 30 Days (Microsporum canis) | further results |
| --- | --- | --- | --- | --- | --- | --- | --- | --- | --- | --- | --- | --- | --- | --- | --- | --- |
| OCC1CCC(CO)CC1 (stereo not shown) [1,4-CHDM, 1,4-cyclohexanedimethanol] | 3 (101 to 1000 colonies (thus 1000 to 10,000 cfu/mL)) | 4 (1001 to 10,000 colonies (thus 10,000 cfu/mL to 100,000 cfu/mL)) | 4 (1001 to 10,000 colonies (thus 10,000 cfu/mL to 100,000 cfu/mL)) | 1 (1 to 51 colonies counted (thus 10 to 510 cfu/mL)) | 3 (101 to 1000 colonies (thus 1000 to 10,000 cfu/mL)) | 4 (1001 to 10,000 colonies (thus 10,000 cfu/mL to 100,000 cfu/mL)) | 0 (No growth detected or <1 colony (thus <10 cfu/mL)) | 2 (52 to 100 colonies counted (thus 520 to 1000 cfu/mL)) | 1 (1 to 51 colonies counted (thus 10 to 510 cfu/mL)) | 2 |  |  |  |  |  | Grade code, C. albicans, 3 Day (Candida albicans; 3 days incubation, listed as 0.5% AB): 3 (101 to 1000 colonies (thus 1000 to 10,000 cfu/mL)); Grade code, C. albicans, 3 Day (Candida albicans; 3 days incubation, listed as 1.25% AB): 1 (1 to 51 colonies counted (thus 10 to 510 cfu/mL)); Grade code, C. albicans, 3 Day (Candida albicans; 3 days incubation, listed as 2.5% AB): 0 (No growth detected or <1 colony (thus <10 cfu/mL)); Grade code, C. albicans, 14 Day (Candida albicans; 14 days incubation, listed as 0.5% AB): 4 (1001 to 10,000 colonies (thus 10,000 cfu/mL to 100,000 cfu/mL)); Grade code, C. albicans, 14 Day (Candida albicans; 14 days incubation, listed as 1.25% AB): 3 (101 to 1000 colonies (thus 1000 to 10,000 cfu/mL)); Grade code, C. albicans, 14 Day (Candida albicans; 14 days incubation, listed as 2.5% AB): 2 (52 to 100 colonies counted (thus 520 to 1000 cfu/mL)); Grade code, C. albicans, 30 Days (Candida albicans; 30 days incubation, listed as 0.5% AB): 4 (1001 to 10,000 colonies (thus 10,000 cfu/mL to 100,000 cfu/mL)); Grade code, C. albicans, 30 Days (Candida albicans; 30 days incubation, listed as 1.25% AB): 4 (1001 to 10,000 colonies (thus 10,000 cfu/mL to 100,000 cfu/mL)); Grade code, C. albicans, 30 Days (Candida albicans; 30 days incubation, listed as 2.5% AB): 1 (1 to 51 colonies counted (thus 10 to 510 cfu/mL)); Grade code, Pathogenic Fungi, M. canis, 14 Days (Microsporum canis; listed as 0.5% AB): 1; Grade code, Pathogenic Fungi, M. canis, 14 Days (Microsporum canis; listed as 1.25% AB): 1; Grade code, Pathogenic Fungi, M. canis, 14 Days (Microsporum canis; listed as 2.5% AB): 0; Grade code, Pathogenic Fungi, M. canis, 30 Days (Microsporum canis; listed as 0.5% AB): 1; Grade code, Pathogenic Fungi, M. canis, 30 Days (Microsporum canis; listed as 1.25% AB): 1; Grade code, Pathogenic Fungi, M. canis, 30 Days (Microsporum canis; listed as 2.5% AB): 0 |
| CCCCCCC(O)CO (stereo not shown) [CG, 1,2-octanediol] |  |  |  |  |  |  |  |  |  | 0 | 3 (101 to 1000 colonies (thus 1000 to 10,000 cfu/mL)) | 0 (No growth detected or <1 colony (thus <10 cfu/mL)) | 0 (No growth detected or <1 colony (thus <10 cfu/mL)) | 0 | 0 |  |
| O=C([O-])CN(CCN(CC(=O)O)CC(=O)O)CC(=O)[O-].[Na+].[Na+] [EDTA, ethylenediaminetetraacetic acid disodium salt] |  |  |  |  |  |  |  |  |  | 2 | 4 (1001 to 10,000 colonies (thus 10,000 cfu/mL to 100,000 cfu/mL)) | 5 (More than 10,000 colonies estimated (thus >100,000 cfu/mL)) | 5 (More than 10,000 colonies estimated (thus >100,000 cfu/mL)) | 1 | 0 |  |
| CC1(C)C(O)C(C)(C)C1O (stereo not shown) [TMCD, 2,2,4,4-tetramethyl-1,3-cyclobutanediol] | 4 (1001 to 10,000 colonies (thus 10,000 cfu/mL to 100,000 cfu/mL)) | 4 (1001 to 10,000 colonies (thus 10,000 cfu/mL to 100,000 cfu/mL)) | 4 (1001 to 10,000 colonies (thus 10,000 cfu/mL to 100,000 cfu/mL)) | 3 (101 to 1000 colonies (thus 1000 to 10,000 cfu/mL)) | 4 (1001 to 10,000 colonies (thus 10,000 cfu/mL to 100,000 cfu/mL)) | 4 (1001 to 10,000 colonies (thus 10,000 cfu/mL to 100,000 cfu/mL)) | 3 (101 to 1000 colonies (thus 1000 to 10,000 cfu/mL)) | 2 (52 to 100 colonies counted (thus 520 to 1000 cfu/mL)) | 2 (52 to 100 colonies counted (thus 520 to 1000 cfu/mL)) |  |  |  |  |  |  |  |
